From patent US9456589B2, “Elasmobranch-repelling compounds and methods of use” (priority 2005, dated 2016)
“And” between values parts separate entries of the source, which are not always exact repeats. Equal values may be shown once. “Also recorded” adds a separate entry of the source. Read-outs that look alike come from different tables or passages of the source.

Experiments:
Format in all cases: in vivo
[1] = system: juvenile lemon and nurse sharks; assay: Tonic immobility, Micropipette Assay, summary over species; conditions: for Micropipette Y (termination of tonic immobility), trials of trials: oral dose; for screening result: lemon and nurse sharks
Method: (§1) One bioassay used to observe and measure flight response is the tonic immobility test. Tonic immobility is a state of paralysis that typically occurs when a shark is subject to inversion of its body along the longitudinal axis. This state is called “tonic,” and the shark can remain in this state for up to 15 minutes thereby allowing researchers to observe effects of chemical repellents. The “tonic” state of the shark is first established by releasing seawater in proximity to the “tonic” shark with the same delivery instrument and at the same distance as a “test” repellent compound will be released. Some controls are released with a high flow rate (30 mL/sec) in order to establish that sharks are not awakened by a jet of fluid over their noses. Once behavioral controls are established, a compound or composition that may have a repelling effect is delivered to the shark. If the compound or composition engenders a flight response, the shark will awaken from the tonic state and rapidly attempt to flee the delivered repellent. Using this tonic immobility bioassay researches can quantify the strength of a repellent effect.
A fourth method of delivery was called the “Micropipette Assay” method of delivery. In this method, a very small dose (fraction of a mL) of a test substance was delivered directly into a shark's mouth. […] A response, such as a cough or other notable action of the shark, was usually noted when effective gustatory repellents were delivered directly into a shark's mouth while in tonic immobility.
The Micropipette Assay method has not proven to be a particularly effective method of assaying for a flight response in elasmobranchs. The Micropipette Assay method is, nevertheless, an excellent method for specifying that a gustatory response has occurred. It is effective for specifying a gustatory response because the micropipette delivery method allows direct delivery of an entire bolus of test substance into the mouth of the shark being tested.
An oral dose of no more than 400 microliters was then delivered by micropipette into the mouth of a juvenile nurse shark. Tonic immobility was terminated. For each derivative of butyric acid and each naturally occurring acid listed in Table 9, a first micropipette assay was performed on a juvenile lemon shark with no more than 100 microliters of test acid in an oral dose. A second micropipette assay was then performed on a juvenile nurse shark with no more than 400 microliters of test acid in an oral dose. In each test, tonic immobility was terminated.
In a first set of studies on the effectiveness of carboxylic acids as elasmobranch repellents, each tested substance was subjected to the following protocol. […] An oral dose of no more than 400 microliters was then delivered by micropipette into the mouth of a juvenile nurse shark. Tonic immobility was terminated. […] The data evidences the gustatory repelling activity of carboxylic acids.

[2] = system: sharks (lemon, nurse, tiger pooled); assay: Tonic immobility, Hd Syringe Assay, summary over species; conditions: for lowest volume of repellent that terminated tonic immobility: Hd Syringe, lemon and nurse sharks; for Hd-Syringe Y (termination of tonic immobility), trials of trials: species pooled
Method: as §1
In Hd-Syringe Assays, the 3-methylbutanal was delivered to the shark's mouth and nares using a 3 mL hypodermic syringe fitted with a 22 gauge needle. The needle was held within 3 inches of the shark's mouth and the test repellent was slowly released from the syringe with a very fine plume in the water column. Any response was denoted. If a response occurred during a measurable time after delivery of the test chemical, the time between delivery and response was noted. If a response occurred immediately or the response occurred before a measurable time could be established, no time to response was noted.

sharks (species pooled) = assay: Tonic immobility, total of delivery methods not including Micropipette assays; conditions: species and delivery methods pooled
Method: as §1
Table 1, which summarizes the data in Tables 14 and 15, evidences the gustatory repellent characteristics of methylbutanals. In 35 of 36 assays (combining columns “Y” and “R” under the column labeled “Total (Not including Micropipette Assays)” to arrive at a 97% effectiveness rate), including assays on lemon, nurse, tiger and blacktip sharks, the gustatory repellent activity of 3-methylbutanal was established. In 81% of assays, tonic immobility was fully terminated. […] In only a single assay did a shark not respond to treatment with 3-methylbutanal.

[3] = system: sharks (lemon, nurse, blacknose, blacktip pooled); assay: Tonic immobility, Syringe Assay, summary over species
Method: as §1
A second delivery method called the “Syringe Assay” method delivered a dose of 60 mL or more of a test chemical repellent from at least one foot, and up to as many as five feet, from a shark. The distance of delivery was determined based on the strength of the water current in the direction of the shark. Time from delivery of the test substance until response was observed, measured and recorded. The “Syringe” method allows a researcher to observe how a diffusing and diluting cloud of test chemical repellent affects the shark's behavior when the shark encounters the delivered cloud of test substance. The “Syringe” method requires relatively large doses because of the diffusion of the cloud over time and distance. Time from delivery to response is related to the size of the bolus delivered from the syringe, distance of the shark from the syringe and water current.
In the Syringe assay about 60 mL or more of valeraldehyde was delivered from one to as many as five feet from the shark depending on the water current. […] Time from delivery to response was related to the size of the bolus delivered from the syringe, distance of the shark from the syringe and water current.

[4] = system: sharks (lemon, nurse, blacktip, tiger, blacknose pooled); assay: Tonic immobility, Syringe 3/5/10 Assay, summary over species
Method: as §1
In the tonic immobility studies disclosed herein, several different methods were employed for delivery of repelling compounds. A first method for delivery of chemical repellent in tonic immobility studies employed a “Syringe 3/5/10 Assay” method. The “Syringe 3/5/10 Assay” method is so named because a test repellent is delivered to a shark from a distance of about “3” inches with a bolus of about “5” mL with a response to the test repellent considered positive if the shark reacts with a change in behavior within less than about “10” seconds from the time of delivery.
The “3/5/10 Syringe Assay” as employed herein delivered a dose of 5-6 mL of a test chemical repellent from a syringe fixed with a needle having a gauge of about 22 from a distance at least 3 inches in front of a shark. Because the test chemical repellent was delivered at a distance from the shark's nares and mouth, a cloud of test chemical repellent was dispersed over the shark within the water column. The dispersed test repellent was subject to water current direction, dispersion and dilution. As a result, a flight response within 10 seconds was considered a positive repellency response. […] Time from delivery to response is related to the size of the bolus delivered from the syringe, distance of the shark from the syringe and water current.
In Syringe 3/5/10 Assays, 5-6 mL of 3-methylbutanal was delivered at least 3 inches in front of the shark's mouth. A cloud of the repellent dispersed over the shark within the water column. […] As noted above, because the dispersion of the chemical repellent upon delivery is affected by volume of repellent, water current, and other factors, the time between delivery and response was not correlatable with the potency of the repellent.

[5] = juvenile lemon and nurse sharks

| SMILES | Micropipette Y (termination of tonic immobility), trials of trials [1, 5] | screening result [1] | Total (Not including Micropipette assays / Effective Delivery Methods) Y, trials of trials (sharks (species pooled)) | Syringe Y (termination of tonic immobility), trials of trials [3] | also measured |
| --- | --- | --- | --- | --- | --- |
| CCC(C)(C)C(=O)O [2,2-Dimethylbutyric Acid] | 2/2 | repellents | – | – | – |
| CC(C)C(C)C(=O)O (stereo not shown) [2,3-Dimethylbutyric Acid] | 2/2 | repellents | – | – | – |
| CCC(CC)C(=O)O [2-Ethylbutyric Acid] | 2/2 | repellents | – | – | – |
| CCC(=O)C(=O)O [2-Ketobutyric Acid] | 2/2 | repellents | – | – | – |
| CCC(C)C=O (stereo not shown) [2-methylbutanal] | – | – | 5/5 | – | lowest volume of repellent that terminated tonic immobility [2]: 200 µL; Hd-Syringe Y (termination of tonic immobility), trials of trials [2]: In each assay tonic immobility was terminated and five of five and 5/5 |
| CC=C(C)C=O [2-methylbutenal] | – | – | – | – | lowest volume of repellent that terminated tonic immobility [2]: 300 µL; Hd-Syringe Y (termination of tonic immobility), trials of trials [2]: All assays resulted in termination of tonic immobility and four of four and 4/4; Hd-Syringe Y (termination of tonic immobility), trials of trials ([2]; listed as 2-Methylbutenal): 4/4 |
| CC(N)CC(=O)O (stereo not shown) [3-Aminobutyric Acid] | 2/2 | repellents | – | – | – |
| C=CCC(=O)O [3-Butenoic Acid (vinylacetic acid), 3-Butenoic Acid] | 2/2 | shark repelling compounds | – | – | – |
| CC(C)=CC=O [3-methylbutenal] | – | – | – | – | lowest volume of repellent that terminated tonic immobility [2]: 350 µL; Hd-Syringe Y (termination of tonic immobility), trials of trials [2]: All assays resulted in termination of tonic immobility and four of four and 4/4; Hd-Syringe Y (termination of tonic immobility), trials of trials ([2]; listed as 3-Methylbutenal): 4/4 |
| CC(=O)CCCC(=O)O [4-Acetylbutyric Acid] | 2/2 | repellents | – | – | – |
| COc1ccc(C=O)cc1 [Anisaldehyde, anisaldehyde] | – | – | – | 1/1 | – |
| CCCCCC=O [Capronaldehyde, capronaldehyde] | – | – | 1/1 | 1/1 | Total Y, percent of trials (sharks (species pooled)): 100% |
| O=C/C=C/c1ccccc1 [Cinnimaldehyde, trans-cinnimaldehyde] | – | – | 2/2 | 2/2 | Syringe Y (termination of tonic immobility), trials of trials ([3]; listed as cinnimaldehyde): two of two; Syringe Y (termination of tonic immobility), trials of trials ([3]; listed as trans-cinnimaldehyde): resulted in termination of tonic immobility |
| O=C(O)CC(O)C(=O)O (stereo not shown) [Hydroxysuccinic Acid] | 2/2 | – | – | – | – |
| CC(C)C=O [Isobutyraldehyde, isobutyraldehyde] | – | – | 4/4 | 4/4 | Syringe Y (termination of tonic immobility), trials of trials ([3]; listed as isobutyraldehyde): All resulted in termination of tonic immobility; Total Y, percent of trials (sharks (species pooled)): 100% |
| CCC=O [Propionaldehyde, propionaldehyde] | – | – | 4/4 | 4/4 | Syringe Y (termination of tonic immobility), trials of trials ([3]; listed as propionaldehyde): All resulted in termination of tonic immobility; Total Y, percent of trials (sharks (species pooled)): 100% |
| CC/C=C/C=O [Trans-pentenal, trans-pentenal] | – | – | 5/5 | – | Hd-Syringe Y (termination of tonic immobility), trials of trials [2]: 5/5; Hd-Syringe Y (termination of tonic immobility), trials of trials ([2]; listed as Pentenal): 5/5 |
| O=C(O)CC(CC(=O)O)C(=O)O [Tricarballylic Acid] | 2/2 | – | – | – | – |
| CC(C)(C)C=O [Trimethylacetaldehyde, trimethylacetaldehyde] | – | – | 6/7 | 1/2 | Micropipette assays with a behavioral response within tonic immobility [1, 5]: change of behavior during tonic immobility; Syringe N (no response), trials of trials [3]: 1/2; Hd-Syringe Y (termination of tonic immobility), trials of trials [2]: 5/5; Total (Not including Micropipette assays / Effective Delivery Methods) N, trials of trials (sharks (species pooled)): 1/7; Total Y, percent of trials (sharks (species pooled)): 100%; Total (Not including Micropipette assays / Effective Delivery Methods) Y, trials of trials (sharks (species pooled); listed as trimethylacetaldehyde): resulted in termination of tonic immobility |
| CCCCC=O [Valeraldehyde, valeraldehyde] | – | – | 6/6 | 1/1 | Micropipette assays with a gustatory response (termination or behavior change) [1, 5]: six of six; also recorded: all Micropipette assays showed a response; Hd-Syringe Y (termination of tonic immobility), trials of trials [2]: 5/5; Total Y, percent of trials (sharks (species pooled)): 100%; Total (Not including Micropipette assays / Effective Delivery Methods) Y, trials of trials (sharks (species pooled); listed as valeraldehyde): terminated tonic immobility; also recorded: six of six |
| CC(O)C(=O)O (stereo not shown) [lactic acid] | – | – | – | – | Syringe 3/5/10 N (no response), trials of trials [4]: no behavioral change and 1/3; Syringe 3/5/10 Y (termination of tonic immobility), trials of trials [4]: two of three and 2/3 |
| O=C(O)/C=C/c1ccccc1 [trans-Cinnamic acid] | 2/2 | – | – | – | – |
